Blank lines part the entries; values can stand above or below the substance they belong to. Bridge positions count the residues as written; N and C are the ends. Ends that are not written are not given here. * marks the point of attachment. Biotin = O=C1N[C@H]2[C@H](CS[C@H]2CCCCC(=O)*)N1
What was measured:
primary CLL cells = experiment: Peptide inhibition of CLL cell staining by labeled mAb, flow cytometry; format: cell-based, human; details: for Staining of primary CLL cells by fluorescently labeled mAb: no peptide
Protocol: The shaded histogram represents staining with labeled human IgG.
After informed consent was obtained per the Declaration of Helsinki, blood samples were collected from patients at the University of California, San Diego (UCSD) Medical Center who satisfied diagnosis and immunophenotypic criteria for common B-cell CLL.
Subsequently, cells were washed two times with 100 μl FACS-wash (PBS, 5% FCS and 0.5% sodium azide) and fixed with 100 μl with 3.7% formaldehyde in PBS.
There was no effect on the binding activity of the other mAb (data not shown).

alemtuzumab = experiment: Antibody-peptide binding kinetics, SkiPro interferometer, whole mAb; details: whole molecule alemtuzumab
Description: (§1) FIGS. 7A to 7D include graphical illustrations showing the kinetics of antibody-peptide binding. Biotinylated peptides were captured onto streptavidin coated nanoporous surfaces. The binding of the mAb or their Fab fragments was monitored on a SkiPro™ interferometer. The binding curves were globally fit to a single binding site association/dissociation model to derive Kon, Koff, and Kd values.
(§2) Kinetics of antibody-peptide binding were studied using SkiPro™ Biomolecular Interaction technology platform on a SkiPro™ interferometer equipped with a 2-channel flow cell and an autosampler (Silicon Kinetics Inc. San Diego, Calif.). All reagents were purchased from Sigma-Aldrich (St. Louis, Mo.). All peptides were incubated with oxidizing agent Sodium Tetrathionate at 10 mM in PBS for 1 hour immediately before binding experiments. Biotinylated peptides were diluted to 5 μM in PBS/0.05% BSA and immobilized on Streptavidin-coated SkiSensor™ Biochips for 10 minutes at 4 μl/min flow rate. […] Concentration series of antibodies and antibody Fab fragments were prepared as twofold dilutions in PBS/0.05% BSA. Binding was carried out for 10 minutes followed by 20 minutes dissociation. For all sensorgrams reference channel data was subtracted from the sample channel. The resulting multi-concentration series of binding curves were globally fit to a single binding site association/dissociation model.
(§3) Biotinylated peptides were used for kinetic binding measurements using nano-pore optical interferometry (FIGS. 7A-7D).

[1] = target: Fab fragments of alemtuzumab; experiment: Antibody-peptide binding kinetics, SkiPro interferometer, Fab fragments
Protocol: as §1
Antibodies were prepared as follows. Alemtuzumab (Genzyme, Cambridge, Mass.) and rituximab (Genentech, San Francisco, Calif.) were obtained from the UCSD Cancer Center pharmacy. The antibodies were fluorescently labeled using the Zenon® R-Phycoerythrin Human IgG labeling kit, Zenon® Alexa Fluor® 488 Human IgG labeling and Zenon® Alexa Fluor® 488 protein labeling kits (Invitrogen, Carlsbad, Calif.). For kinetic studies, Fab fragments of each mAb were prepared by papain digestion using a Fab preparation kit (Thermo Fisher Scientific, Rockford, Ill.) as per manufacturers instructions.
as §2, §3

Substance: rituximab [reference compound]
Staining of primary CLL cells by fluorescently labeled mAb (primary CLL cells): weak

Substance: ACPYSNPSLCGGK (ACPYSNPSLCGGK(Biotin); disulfide 2-10 (inferred)) [pRTX-10B]
CLL cell labeling by fluorescently labeled rituximab with peptide added (primary CLL cells; peptide at 25,000 molar excess): largely abrogated

Kd (alemtuzumab): 163 nM | Koff (alemtuzumab): 0.00132 s⁻¹ | Kon (alemtuzumab; biotinylated peptide on streptavidin surface): 8130 M⁻¹ s⁻¹ | Kd [1]: 2050 nM | Koff [1]: 0.00505 s⁻¹ | Kon [1]: 2460 M⁻¹ s⁻¹
Substance: ACGSLSPSSC [Cp-1]

Substance: ACGSLSPSSCGGK (ACGSLSPSSCGGK(Biotin); disulfide 2-10 (inferred)) [pCp-1B]
CLL cell labeling by fluorescently labeled alemtuzumab with peptide added (primary CLL cells; peptide at 25,000 molar excess): largely abrogated

Substance: alemtuzumab [reference compound]
Staining of primary CLL cells by fluorescently labeled mAb (primary CLL cells): robust staining

Source: US10359432B2, “Methods for detecting antibodies” (The Regents of the University of California, priority 2008, dated 2019)
